Q: Which melting point does the source give for CN(C)c1cc2c(cc1C(F)(F)F)NC(=O)CC(c1cccc(-c3ccccn3)c1)=N2 [Example 6, 7-Dimethylamino-4-(3-pyridin-2-yl-phenyl)-8-trifluoromethyl-1,3-dihydro-benzo[b][1,4]diazepin-2-one] here?
A: Its melting point is 201 °C.

Q: With O=C1CC(c2cccc(-c3cccnc3)c2)=Nc2ccc(F)cc2N1 [Example 7, 8-Fluoro-4-(3-pyridin-3-yl-phenyl)-1,3-dihydro-benzo[b][1,4]diazepin-2-one] as the compound, how does the melting point read?
A: The melting point was 210 °C.

Q: For O=C1CC(c2cccc(-c3ccncc3)c2)=Nc2ccc(F)cc2N1 [Example 8, 8-Fluoro-4-(3-pyridin-4-yl-phenyl)-1,3-dihydro-benzo[b][1,4]diazepin-2-one], which melting point is on record?
A: The melting point was 190 to 192 °C.

Q: For Cc1ccc(-c2cccc(C3=Nc4cc(N(C)C)c(C(F)(F)F)cc4NC(=O)C3)c2)cn1 [Example 10, 7-Dimethylamino-4-[3-(6-methyl-pyridin-3-yl)-phenyl]-8-trifluoromethyl-1,3-dihydro-benzo[b][1,4]diazepin-2-one], which melting point is on record?
A: The melting point was 233 to 237 °C.

Q: With Cc1ccc(-c2cccc(C3=Nc4ccc(F)cc4NC(=O)C3)c2)cn1 [Example 11, 8-Fluoro-4-[3-(6-methyl-pyridin-3-yl)-phenyl]-1,3-dihydro-benzo[b][1,4]diazepin-2-one] as the compound, how does the melting point read?
A: Its melting point is 225 to 226 °C.

Q: Which melting point does the source give for Cc1ccc(-c2cccc(C3=Nc4ccc(C(F)(F)F)cc4NC(=O)C3)c2)nn1 [Example 14, 4-[3-(6-Methyl-pyridazin-3-yl)-phenyl]-8-trifluoromethyl-1,3-dihydro-benzo[b][1,4]diazepin-2-one] here?
A: The melting point was 233 °C.

Q: Which melting point does the source give for Cc1ccc(-c2cccc(C3=Nc4cc(N(C)C)c(C(F)(F)F)cc4NC(=O)C3)c2)nn1 [Example 15, 7-Dimethylamino-4-[3-(6-methyl-pyridazin-3-yl)-phenyl]-8-trifluoromethyl-1,3-dihydro-benzo[b][1,4]diazepin-2-one] here?
A: The melting point was 174 °C.

Q: Which melting point does the source give for Cc1ncccc1-c1cccc(C2=Nc3ccc(C(F)(F)F)cc3NC(=O)C2)c1 [Example 17, 4-[3-(2-Methyl-pyridin-3-yl)-phenyl]-8-trifluoromethyl-1,3-dihydro-benzo[b][1,4]diazepin-2-one] here?
A: The melting point was 219 to 220 °C.

Q: Which melting point does the source give for Cc1ncccc1-c1cccc(C2=Nc3ccc(F)cc3NC(=O)C2)c1 [Example 18, 8-Fluoro-4-[3-(2-methyl-pyridin-3-yl)-phenyl]-1,3-dihydro-benzo[b][1,4]diazepin-2-one] here?
A: Its melting point is 219 to 220 °C.

Q: With Cc1ncccc1-c1cccc(C2=Nc3ccc(-c4ccccc4F)cc3NC(=O)C2)c1 [Example 19, 8-(2-Fluoro-phenyl)-4-[3-(2-methyl-pyridin-3-yl)-phenyl]-1,3-dihydro-benzo[b][1,4]diazepin-2-one] as the compound, how does the melting point read?
A: The melting point was 192 to 194 °C.

Q: With Cc1ccc(-c2cccc(C3=Nc4cc(F)c(Cl)cc4NC(=O)C3)c2)cn1 [Example 23, 8-Chloro-7-fluoro-4-[3-(6-methyl-pyridin-3-yl)-phenyl]-1,3-dihydro-benzo[b][1,4]diazepin-2-one] as the compound, how does the melting point read?
A: Its melting point is 215 to 220 °C.

Q: Which melting point does the source give for Cc1cc2c(cc1Cl)NC(=O)CC(c1cccc(-c3cccnc3)c1)=N2 [Example 26, 8-Chloro-7-methyl-4-(3-pyridin-3-yl-phenyl)-1,3-dihydro-benzo[b][1,4]diazepin-2-one] here?
A: Its melting point is 229 °C.

Q: With O=C1CC(c2cccc(-c3cccnc3)c2)=Nc2ccc(-c3ccccc3F)cc2N1 [Example 29, 8-(2-Fluoro-phenyl)-4-(3-pyridin-3-yl-phenyl)-1,3-dihydro-benzo[b][1,4]diazepin-2-one] as the compound, how does the melting point read?
A: Its melting point is 208 to 209 °C.

Q: Which melting point does the source give for Cc1ccc(-c2cccc(C3=Nc4ccc(Cl)cc4NC(=O)C3)c2)cn1 [Example 31, 8-Chloro-4-[3-(6-methyl-pyridin-3-yl)-phenyl]-1,3-dihydro-benzo[b][1,4]diazepin-2-one] here?
A: Its melting point is 230 °C.

Q: With Cc1ncccc1-c1cccc(C2=Nc3ccc(Cl)cc3NC(=O)C2)c1 [Example 32, 8-Chloro-4-[3-(2-methyl-pyridin-3-yl)-phenyl]-1,3-dihydro-benzo[b][1,4]diazepin-2-one] as the compound, how does the melting point read?
A: The melting point was 198 °C.

Q: Which melting point does the source give for O=C1CC(c2cccc(-c3ccccn3)c2)=Nc2ccc(C(F)(F)F)cc2N1 [Example 33, 4-(3-Pyridin-2-yl-phenyl)-8-trifluoromethyl-1,3-dihydro-benzo[b][1,4]diazepin-2-one] here?
A: Its melting point is 226 to 227 °C.

Q: For O=C1CC(c2cccc(-c3cccnc3)c2)=Nc2ccccc2N1 [Example 34, 4-(3-Pyridin-3-yl-phenyl)-1,3-dihydro-benzo[b][1,4]diazepin-2-one], which melting point is on record?
A: Its melting point is 210 to 211 °C.

Q: For COc1cc2c(cc1C(F)(F)F)NC(=O)CC(c1cccc(-c3ccncc3)c1)=N2 [Example 35, 7-Methoxy-4-(3-pyridin-4-yl-phenyl)-8-trifluoromethyl-1,3-dihydro-benzo[b][1,4]diazepin-2-one], which melting point is on record?
A: The melting point was 225 °C (dec.).

Q: With COc1ccc2c(c1)NC(=O)CC(c1cccc(-c3ccncc3)c1)=N2 [Example 38, 8-Methoxy-4-(3-pyridin-4-yl-phenyl)-1,3-dihydro-benzo[b][1,4]diazepin-2-one] as the compound, how does the melting point read?
A: The melting point was 193 to 196 °C.

Q: For CN(C)c1cc2c(cc1-c1ccccc1F)NC(=O)CC(c1cccc(-c3ccncc3)c1)=N2 [Example 39, 7-Dimethylamino-8-(2-fluoro-phenyl)-4-(3-pyridin-4-yl-phenyl)-1,3-dihydro-benzo[b][1,4]diazepin-2-one], which melting point is on record?
A: Its melting point is 236 to 237 °C.

Q: For COc1ccc(-c2cccc(C3=Nc4cc(N(C)C)c(C(F)(F)F)cc4NC(=O)C3)c2)nn1 [Example 40, 7-Dimethylamino-4-[3-(6-methoxy-pyridazin-3-yl)-phenyl]-8-trifluoromethyl-1,3-dihydro-benzo[b][1,4]diazepin-2-one], which melting point is on record?
A: The melting point was 224 °C.

Q: Which melting point does the source give for CCOc1cc2c(cc1C(F)(F)F)NC(=O)CC(c1cccc(-c3ccccn3)c1)=N2 [Example 43, 7-Ethoxy-4-(3-pyridin-2-yl-phenyl)-8-trifluoromethyl-1,3-dihydro-benzo[b][1,4]diazepin-2-one] here?
A: The melting point was 229 °C.

Q: With O=C1CC(c2cccc(-c3ccccn3)c2)=Nc2cc(OCC(F)(F)F)c(C(F)(F)F)cc2N1 [Example 44, 4-(3-Pyridin-2-yl-phenyl)-7-(2,2,2-trifluoro-ethoxy)-8-trifluoromethyl-1,3-dihydro-benzo[b][1,4]diazepin-2-one] as the compound, how does the melting point read?
A: Its melting point is 214 °C.

Q: Which melting point does the source give for Cc1cc2c(cc1Cl)NC(=O)CC(c1cccc(-c3ccccn3)c1)=N2 [Example 45, 8-Chloro-7-methyl-4-(3-pyridin-2-yl-phenyl)-1,3-dihydro-benzo[b][1,4]diazepin-2-one] here?
A: Its melting point is 222 °C (dec.).

Q: Which melting point does the source give for Cc1cc2c(cc1C(F)(F)F)NC(=O)CC(c1cccc(-c3ccccn3)c1)=N2 [Example 46, 7-Methyl-4-(3-pyridin-2-yl-phenyl)-8-trifluoromethyl-1,3-dihydro-benzo[b][1,4]diazepin-2-one] here?
A: Its melting point is 251 to 253 °C.

Q: With Cc1cc2c(cc1C(F)(F)F)NC(=O)CC(c1cccc(-c3ccnnc3)c1)=N2 [Example 49, 7-Methyl-4-(3-pyridazin-4-yl-phenyl)-8-trifluoromethyl-1,3-dihydro-benzo[b][1,4]diazepin-2-one] as the compound, how does the melting point read?
A: The melting point was 223 °C.

Q: With COc1ccc(-c2cccc(C3=Nc4ccc(C(F)(F)F)cc4NC(=O)C3)c2)cn1 [Example 50, 4-[3-(6-Methoxy-pyridin-3-yl)-phenyl]-8-trifluoromethyl-1,3-dihydro-benzo[b][1,4]diazepin-2-one] as the compound, how does the melting point read?
A: The melting point was 210 to 215 °C.

Q: With COc1ccc(-c2cccc(C3=Nc4ccc(Cl)cc4NC(=O)C3)c2)cn1 [Example 51, 8-Chloro-4-[3-(6-methoxy-pyridin-3-yl)-phenyl]-1,3-dihydro-benzo[b][1,4]diazepin-2-one] as the compound, how does the melting point read?
A: Its melting point is 200 to 205 °C.

Q: For O=C1CC(c2cccc(-c3ccccn3)c2)=Nc2cc(F)c(Cl)cc2N1 [Example 52, 8-Chloro-7-fluoro-4-(3-pyridin-2-yl-phenyl)-1,3-dihydro-benzo[b][1,4]diazepin-2-one], which melting point is on record?
A: Its melting point is 197 to 198 °C.

Q: With COc1ccc2c(c1)N=C(c1cccc(-c3cccnc3)c1)CC(=O)N2 [Example 55, 7-Methoxy-4-(3-pyridin-3-yl-phenyl)-1,3-dihydro-benzo[b][1,4]diazepin-2-one] as the compound, how does the melting point read?
A: Its melting point is 219 °C (dec.).

Q: Which melting point does the source give for CCOc1ccc2c(c1)N=C(c1cccc(-c3ccnc(C)c3)c1)CC(=O)N2 [Example 59, 7-Ethoxy-4-[3-(2-methyl-pyridin-4-yl)-phenyl]-1,3-dihydro-benzo[b][1,4]diazepin-2-one] here?
A: Its melting point is 163 °C.

Q: Which melting point does the source give for CCOc1ccc2c(c1)N=C(c1cccc(-c3ccc(C)nc3)c1)CC(=O)N2 [Example 60, 7-Ethoxy-4-[3-(6-methyl-pyridin-3-yl)-phenyl]-1,3-dihydro-benzo[b][1,4]diazepin-2-one] here?
A: Its melting point is 173 °C.

Q: Which melting point does the source give for CN(c1cc2c(cc1C(F)(F)F)NC(=O)CC(c1cccc(-c3cccnc3)c1)=N2)C1CC1 [Example 62, 7-(Cyclopropyl-methyl-amino)-4-(3-pyridin-3-yl-phenyl)-8-trifluoromethyl-1,3-dihydro-benzo[b][1,4]diazepin-2-one] here?
A: The melting point was 196 to 198 °C.

Q: For Cc1cc2c(cc1C(F)(F)F)N=C(c1cccc(-c3ccncc3)c1)CC(=O)N2 [Example 64, 8-Methyl-4-(3-pyridin-4-yl-phenyl)-7-trifluoromethyl-1,3-dihydro-benzo[b][1,4]diazepin-2-one], which melting point is on record?
A: Its melting point is 217 °C.

Q: For Cc1cc2c(cc1Cl)N=C(c1cccc(-c3ccncc3)c1)CC(=O)N2 [Example 66, 7-Chloro-8-methyl-4-(3-pyridin-4-yl-phenyl)-1,3-dihydro-benzo[b][1,4]diazepin-2-one], which melting point is on record?
A: Its melting point is 236 °C.

Q: Which melting point does the source give for Cc1cc2c(cc1C)NC(=O)CC(c1cccc(-c3ccncc3)c1)=N2 [Example 69, 7,8-Dimethyl-4-(3-pyridin-4-yl-phenyl)-1,3-dihydro-benzo[b][1,4]diazepin-2-one] here?
A: The melting point was 231 °C.

Q: With Cc1cc(-c2cccc(C3=Nc4ccccc4NC(=O)C3)c2)ccn1 [Example 71, 4-[3-(2-Methyl-pyridin-4-yl)-phenyl]-1,3-dihydro-benzo[b][1,4]diazepin-2-one] as the compound, how does the melting point read?
A: The melting point was 192 °C.

Q: Which melting point does the source give for Cc1cc(-c2cccc(C3=Nc4ccc(Cl)cc4NC(=O)C3)c2)ccn1 [Example 74, 8-Chloro-4-[3-(2-methyl-pyridin-4-yl)-phenyl]-1,3-dihydro-benzo[b][1,4]diazepin-2-one] here?
A: Its melting point is 215 °C.

From US6949542B2, “Dihydro-benzo[b][1,4]diazepin-2-one derivatives” (Hoffman-La Roche Inc., priority 2002, dated 2005)
